Test system: A549 cells
Assay: Flow cytometry cell cycle analysis / survival of A549 cells
Type: cell-based, human
Experimental: Cell Lines: The human lung adenocarcinoma cell line A549 was obtained from the American Type Culture Collection (ATCC) (Bethesda, Md.). […] Cells were grown at 37° C. with 5% CO2.
Reagents: The PEITC was obtained from Aldrich (Milwaukee, Wis.) and its N-acetylcysteine conjugate was synthesized in house by the Organic Synthesis Facility using the method described previously (Kassahun et al., Chem Res Toxicol 1997, 10(11):1228-33). Unless specified otherwise, the A549 cells were treated with 10 or 25 μM of PEITC-NAC. TPA (12-O-tetradecanoylphorbol-13-acetate) was purchased from Sigma (St. Louis, Mo.).
Cell cycle analysis: A549 cells were harvested following 16 and 24 h treatment with various concentrations of PEITC-NAC by fixation in 70% ethanol. Cellular DNA was determined following staining with 1 μg/ml of 4,6-diamidino-2-ephynylindole (DAPI, Molecular Probes, Eugene, Oreg.) dissolved in PBS. Cellular blue fluorescence was measured using the Elite ESP flow cytometer/cell sorter (Coulter, Miami, Fla.) following excitation with a Ni/Cad UV light emitting laser. The data were collected and DNA histograms were deconvoluted using Multicycle software (Phoenix Flow Systems, San Diego, Calif.).

**Q.** What does the source list for `CC(=O)N[C@@H](CSC(=S)NCCc1ccccc1)C(=O)O` [PEITC-NAC, N-acetylcysteine Conjugate of phenethyl isothiocyanate]?
**A.** cells undergoing apoptosis (sub-G1 peak) (10 μM for 24 h): 4.5%; cell survival (100 μM, 24 h): no lung cells appear to survive
